SMILES | melting point [°C]
O=Cc1ccc(OCc2ccccc2)c2[nH]c(C(=O)O)cc12 | 207
Cc1cccc2c1N(CC(=O)N1CC3CCC(CC3)C1)C(=O)C(NC(=O)Nc1cccc(Cc3nnn[nH]3)c1)N=C2c1ccccc1F (stereo unspecified) | 154 to 168
CCc1cc(C#N)ccc1Nc1c(N[C@H](C)C(C)(C)C)c(=O)c1=O | 235 to 237
CC(C)(C)OC(=O)NCC(=O)Nc1ccc2c(c1)-c1c(c(C(=O)C(C#N)C(=O)Nc3ccccc3)nn1-c1ccccc1)CS2 (stereo unspecified) | 190 to 200
CC1(C)Oc2ccc([N+](=O)[O-])cc2C(n2ccccc2=O)=C1CNC=O | 170
CSc1cc(C)nc(SC)c1NC(=O)CBr | 171 to 172
Cc1ccccc1Oc1nnc(Cl)c(C)c1O | 209 to 213
O=C1OC(OC(=O)c2cccnc2Cl)c2ccccc21 (stereo unspecified) | 137 to 138
CC(O)(c1cccc(C(F)(F)F)c1)c1cc(Cl)ccc1O (stereo unspecified) | 115
Cc1cccc(-c2[nH]c(C(C)C)nc2-c2ccc(F)c(-c3c[nH]nn3)c2)n1 | 233 to 235
Cc1scnc1-c1ccc(-c2cc(C(F)(F)F)nn2-c2ccc(S(C)(=O)=O)c(F)c2)cc1 | 170 to 172
CC(O)(c1nc2ccc(I)cc2c(=O)[nH]1)C(F)(F)F (stereo unspecified) | 205 to 207
COc1cccc2c1OC(C(C)C)C2=O (stereo unspecified) | 46 to 47
O=c1c(Cl)c2sc3ccccc3nc-2c2ccccc12 | 230 to 231
Nc1ccc(-c2ncn(-c3ccc(OC(F)(F)F)cc3)n2)cc1 | 147
COc1ccc(C(O)C(C)N)cc1OC (stereo unspecified) | 131 to 132
Cc1c(Cl)c(C(=O)O)cc(Cl)c1C(=O)O | 169 to 171
CC1(C)C=C(c2ccc3ccccc3n2)c2cc(C#N)ccc2O1 | 102 to 104
Nc1cccc2ccc(C(=O)O)cc12 | 221 to 223
CSC1C(=O)Nc2c(Nc3ccccc3Cl)cccc21 (stereo unspecified) | 151 to 153
c1cc(N=Nc2ccncc2)ccn1 | 87 to 89
CCc1c(Oc2cc(C)cc(C)c2)n(COCc2ccccc2)c(=O)[nH]c1=O | 146 to 150
COc1ccc2ccc(O)c(Cl)c2c1 | 76 to 78
Cc1cc(C2(O)C(=O)c3ccccc3C2=O)c(C)cc1O | 228 to 230
COc1ccc2sc3nc(CO)cn3c2c1 | 189 to 190
CC(O)=C(C#N)C(=O)Nc1ccc(C(C)(C)C)cc1 | 134 to 135

SMILES | melting point [°C]
Cn1cc(Oc2cc(Cl)ccc2Cl)c(=O)c(-c2cccc(C(F)(F)F)c2)c1 | 162 to 164
O=c1c2ccccc2sc2c(OCc3ccccc3)ccc(Cl)c12 | 139 to 140
CC(O)c1cn(C(c2ccccc2)(c2ccccc2)c2ccccc2)cn1 (stereo unspecified) | 156 to 157
OCC1OC(n2cnc3c(NCC(c4ccccc4)c4cccc(Cl)c4)ncnc32)C(O)C1O (stereo unspecified) | 107 to 110
O=C(O)c1ccc(Cn2cc(C3c4ccc(C(F)(F)F)cc4C=Cc4cc(C(F)(F)F)ccc43)c(=O)[nH]c2=O)o1 | 203 to 206
COC(=O)N(COc1ccc(Cl)cc1Cl)c1ccc(Cl)cc1 | 70 to 80
CC(C)(C)C(=O)C(Oc1ccc(Cl)cc1)n1ncnc1S (stereo unspecified) | 134 to 136
C1=c2ccn3c2=C(CC1)c1nncn1-c1ccccc1-3 | 177 to 178
COc1cc(C)c(NCCO)cc1[N+](=O)[O-] | 94
CN1CCc2cc(Cl)c(O)cc2[C@H](c2ccccc2)C1 | 188 to 189
CSc1ccccc1-c1[nH]c2cccc3c2c1CCNC3=O | 271 to 272
N#Cc1ccc(N2C(=O)N(CCO)C3(CCOCC3)C2=O)cc1C(F)(F)F | 196 to 197
NS(=O)(=O)c1cc2[nH]c(S)nc2cc1Cl | 341 to 343
Cc1cccc(-c2cc(F)c3c(c2)CC(CN)O3)c1 (stereo unspecified) | > 250
FC1(F)Oc2cccc(-c3n[nH]cc3I)c2O1 | 142
Oc1cccc2c1CC(NC1CC1)CO2 (stereo unspecified) | 147 to 148
Clc1ccc2nc(-c3cccnc3)[nH]c2c1 | 244 to 246
CC1=C(C(=O)OC(C)(C)C)C(c2cc(Cl)ccc2Cl)C(C(=O)OC(C)(C)C)=C(C)N1 | 181 to 183
Cc1ccccc1-c1ccc(O)c(C(=O)O)c1 | 151
Clc1ccc(Nc2nnc(Cc3ccncc3)c3cnccc23)cc1 | 227 to 228
CC(=O)c1c(C)[nH]c(CCN)c1C | 106 to 108
O=c1[nH]c2sc3ccc(I)cc3c2[nH]c1=O | > 300
O=C(C#Cc1ccc(Br)cc1)Nc1ccccc1 | 159 to 160
O=Cc1ccc(CCBr)cc1 | 49 to 52
COc1ccc(-c2nc(Cn3cnnc3)nc3cc(OC)c(OC)cc23)cc1 | 212 to 213

Next, values leading:

melting point [°C] | SMILES
175 to 177 | c1ccc(CSc2nc3cnccc3[nH]2)cc1
170 to 172 | CN1CCC(c2c[nH]c3ccc(CCS(=O)(=O)N(C)C)cc23)CC1
247 to 249 | O=C(O)C(OCCC1CCN(c2ccncc2)CC1)Oc1ccccc1 (stereo unspecified)
84 to 88 | CCCCCCCCCCCCCCCCCCS(=O)(=O)c1cc2ccccc2c(N)c1O
249 | Cc1nn(CC(O)c2ccc(Cl)cc2)c(=O)n1-c1ccc(N2CCN(c3ccc(O)cc3)CC2)cc1 (single isomer, unassigned; (+))
162 to 163 | CC(C)CC(=O)Nc1ccc2oc3c(c2c1)CCCCC3
240 to 242 | CCCCc1nc2cccc(C(=O)OC)c2n1Cc1ccc2nc(-c3ccccc3-c3nnn[nH]3)n(C)c(=O)c2c1
125 to 130 | CC(=O)OC1CSC(Oc2ccc(-c3ccccn3)cc2)C(OC(C)=O)C1OC(C)=O (stereo unspecified)
> 250 | CC(C)n1nc(-c2c(Nc3ccccc3)nc(N)nc2-c2ccc(F)cc2)ccc1=O
128 to 134 | CCc1c(CCC(=O)O)c[nH]c1C=O
212 to 213 | O=C1CCC(Nc2nccc(-n3ncc4ccccc43)n2)CC1
127 to 128 | COC(=O)[C@@H]1CCCC[C@H]1C[C@@H](O)[C@H](Cc1ccccc1)NC(=O)OC(C)(C)C
> 300 | Cn1c2ccncc2c(=O)n2nccc12
151 to 154 | Cc1noc(NS(=O)(=O)c2ccc(C(C)(C)C)cc2)c1C
103 to 104 | CCc1c(CCNC(=O)CCCCC(=O)NC(C)(C)Cc2ccc3c(c2CC)OCO3)ccc(OC)c1OC
197 to 198 | CCOC(=O)c1ccc(NCCCc2c(N(C(C)=O)C(C)=O)nc(NC(C)=O)[nH]c2=O)cc1
145 to 146 | O=C(O)COc1ccc(SCc2cccc(OCc3ccc(C(F)(F)F)cc3)c2)c2c1CCC2
130 | O=C(NOCCO)c1ccc(F)c(F)c1Nc1ccccc1F
67 to 68 | c1cncc(-c2nc(COc3ccc(CCCn4ccnc4)cc3)cs2)c1
157 to 167 | COc1ccc(N2CCOCC2)c2sc(NC(=O)N(C)C3CCC(C(F)(F)F)CC3)nc12 (stereo unspecified)
150 to 153 | CC(CS)C(=O)N(CC(=O)O)Cc1ccco1 (stereo unspecified)
85 to 87 | CCCCCCCCCCCCCCCCNC(=O)c1cccnc1
127 to 129 | CCOC(=O)COc1ccc(C2=NNC(=O)CC2)cc1
157 | O=C(O)CCNC(=O)c1cccc(NC(=O)c2csc(NC(=O)NCc3ccccc3)n2)c1
160 | [N-]=[N+]=NCC1=C(C(=O)O)N2C(=O)C(NC(=O)Cc3csc(=O)s3)C2SC1 (stereo unspecified)

melting point [°C] | SMILES
197 to 199 | COc1ccc(-c2ccc(C(=O)CCC(=O)O)cc2)cc1
160 to 162 | CCCn1cc(C(=O)NCc2ccc(Cl)cc2)c(=O)c2cc(CCl)oc21
215 to 216 | CC(C)Cn1c(CONS(C)(=O)=O)nc2c(N)nc3ccccc3c21
203 to 205 | CC(=O)Nc1ncc(CCc2ccc(NC(NC(=O)OC(C)(C)C)NC(=O)OC(C)(C)C)cc2)s1
83 to 85 | COc1ccc2cc([C@H](C)C(=O)OCC(=O)N3CCC(CCO[N+](=O)[O-])CC3)ccc2c1
99 to 101 | CCOC(=O)c1coc(-c2ccc(CO)cc2)n1
164 to 168 | CCOC(=O)c1c(C2CC2)nn(CC)c1Cc1ccc(-c2ccccc2-c2nnn(C(c3ccccc3)(c3ccccc3)c3ccccc3)n2)cc1
218 | CCCCn1c(=O)[nH]c(=O)c2c1ncn2CC(C)=O
237 to 239 | CCC(=O)Nc1cccc(-c2c(C)c(NC(=O)CC(C)(C)C)c(C)c3c2OCC3c2ccc(C(C)C)cc2)c1 (stereo unspecified)
223 to 225 | CCOC(=O)c1cn(C23CC(C2)C3)c2cc(Cl)c(F)cc2c1=O
221 to 225 | COc1ccc(C(=O)Nc2ccc(F)cc2)cc1NS(=O)(=O)c1cccc(C#N)c1
163 | CCOc1nc(SC)nc(N2CCS(=O)CC2)c1C=O
161 | CC(=O)c1ccc(Br)c(S(N)(=O)=O)c1
197 to 198 | O=C(O)C=CC(=O)OC1CCN(C(=O)Cn2c(=O)sc3ccc(Cl)cc32)CC1
150 to 160 | CCCc1nc2c(C)cc(C)nc2n1Cc1ccc2oc(-c3ccccc3C(=O)O)nc2c1
177 to 178 | CCCc1nc2cccc(C(=O)OC)c2n1Cc1ccc(-c2ccccc2C(=N)NOC(C)=O)cc1
58 to 59 | CCCCCCCCCCCCSC(=S)SC(C)(C#N)CCC(=O)O (stereo unspecified)
78 to 82 | CN=C(NC#N)NCCSCc1ccco1
151 to 152 | CCOC(=O)C[C@@H]1CCCC[C@H]1n1nc(-c2c(-c3ccccc3)nn3ccccc23)ccc1=O (relative stereo)
104 to 105 | CCS(=O)(=O)Nc1cc(N=C=S)c(F)cc1Cl
211 | Cn1nc(Sc2cc(C(F)(F)F)ccc2C(=O)O)n(C)c1=O
133 | c1ccc2c(c1)OCC(CN1CCC(CNc3nc4ccccc4s3)CC1)O2 (stereo unspecified)
178 to 180 | CCCCNS(=O)(=O)CC(O)C(O)C(CC1CCCCC1)NC(=O)c1cnccn1 (stereo unspecified)
> 200 | CC(C)/C=C(\C[C@H](N)C(=O)O)C(=O)O
132 to 135 | CCNC(=O)c1ccc(-c2ccc3nnn(C(C)(C)c4ccc5ncccc5c4)c3n2)cc1F

Reference: a melting point compilation (Tetko et al.; mined from patent text by program, amines drawn as free bases though some values may be those of a salt)
